The record followed here is patent publication US8592458B2 (priority 2005, dated 2013).

Where a name gives a salt, the structure may show the parent alone.

For one data set, the target named is α7 nAChR (Rattus norvegicus, UniProt Q05941). It is filed as binding.
The target of the next data set is α4β2 nAChR (Rattus norvegicus, UniProt P09483+P12390). Nature of the data set: Radioligand binding, displacement of [3H]cytisine from rat brain membranes. The note with it: n = 2. As for the experimental part:
Assays were performed using the experimental compound to compete for its nAChR binding site with a radioligand that specifically labels either the α4β2 or the α7 nAChR in homogenized Sprague-Dawley rat brain membrane. These assays were used to determine the IC50 of the experimental compounds, which is then used to determine the KI with the Cheng-Prusoff equation.
The 3-arylidene-anabaseine compound was suspended in 50 mM Tris binding saline, with 2 mg/ml BSA, if it was a salt, or in methanol if it was a free base, and dilutions were made in 2 mg/ml BSA Tris binding saline. The final solutions were incubated at 37° C. for approximately 2.5 hours. Once the reaction was assumed to be at equilibrium, it was stopped by harvesting the tissue onto GF/C filters, which were soaked for 45 minutes in a 0.5% polyethylenamine solution to reduce non-specific binding of the radioligand to the filter, using a Brandel tissue harvester. The filters were then placed in gamma tubes and counted on a Beckman counter for 5 minutes per sample. The counts per minute were then assessed, the results were entered, and the IC50s and KIs were determined using the software program Graphpad Prism®. The [^3H]cytisine experiments were performed in a similar manner. First the addition of all of the components: 1 nM [^3H]cytisine, 3-benzylidene-3-arylidene-anabaseine compound (5 nM-50 μM), 0.2 mg rat brain homogenate, and 2 mg/ml BSA Tris solution at a pH of 7.4 to bring the final volume up to 0.5 ml in each tube.
To assess non-specific binding, 1 mM nicotine was added in place of the 3-arylidene-anabaseine. To assess total binding, only the radioligand, tissue, and BSA Tris solution were added. The incubation time and the temperature were altered in this protocol to produce the greatest difference between total and non-specific binding and to maximize the affinity of the radioligand for the receptor, respectively. The incubation time for [^3H]cytisine was 4 hours at 4° C. […] The counts per minute were entered into GraphPad Prism® where the IC50s and the KIs were assessed.
Rat brain membrane was obtained frozen from Pel-Freez Biologicals (Rogers, Ariz.). The protein concentration of the rat brain homogenate was assessed using the bicinchoninic acid (BCA) protein assay kit from Pierce (Rockford, Ill.).
Displacement of ^125I-labelled alpha-bungarotoxin (BTX) measured binding to alpha7 receptors; displacement of [^3H]-labelled cytisine measured binding to alpha4beta2 receptors. […] Nonspecific binding of each radioligand was measured in the presence of 1.0 mM nicotine. […] Bound [3H] […] was measured in a liquid scintillation counter, whereas [125]BTX was measured with use of a Biogamma counter (both from Beckman Coulter).
(Loss of bound radioactivity is the signal in a displacement assay; it reports binding, not function.)

Data set [1] is described as follows: Spectrophotometric pKa determination of the imine nitrogen. Type of data set: physicochemical. As for the experimental part: Thirteen different pH values in the titration region were evaluated (pH: 4, 5, 6, 7, 7.2, 7.5, 7.8, 8, 8.2, 8.5, 8.8, 9, 10). A specific concentration of 3-benzylidene-3-arylidene-anabaseine compound, 1.3×10^−3 M, was added to the potassium phosphate buffers at varied pH values. Each tube was then vortexed and immediately read in a Beckman spectrophotometer. The same glass cuvette was used with every sample. The glass cuvette was thoroughly rinsed with distilled deionized water between different pH samples. The wavelength scan was set to a range of 250-600 nm. The pH with the highest change in absorbance was determined. The wavelength at the highest change in absorbance and the absorbance values for all of the different pH samples at this wavelength were entered into the Enzfitter software (Elsevier-Biosoft, Cambridge, UK) in order to estimate each pKa value.

The nature of data set [2]: Octanol/water partition coefficient by RP-HPLC. It is filed as physicochemical. The note with it: 1-octanol/sodium phosphate buffer; 1-octanol / 10 mM sodium phosphate buffer pH 7.4 with 150 mM NaCl, corrected for ionization. As for the experimental part: P is the ratio of the concentration of an un-ionized form of a compound in octanol relative to the unionized concentration of the compound in an aqueous phase containing 150 mM NaCl (to approximate physiological conditions), after the two phases have equilibrated. Log P values were determined for each test compound by RP-HPLC analysis. Approximately 1 mg of each compound was weighed out and placed in equal volumes, 3 ml 10 mM sodium phosphate buffer, pH 7.4, which contained 150 mM NaCl, and 1-octanol. Previously, equal volumes of the sodium phosphate buffer and 1-octanol were added to a separatory funnel and allowed to equilibrate overnight. The equilibrated sodium phosphate buffer was checked prior to its addition to the compound for a pH of 7.4. Once these phases were added to the weighed compound, the solutions were allowed to equilibrate overnight on a gentle shaker at room temperature. The samples were centrifuged at […] for 5 minutes and octanol phase carefully removed with a Pasteur pipette. The pH of the water phase was remeasured in order to calculate the corrected Log P value.
Since large concentrations of octanol cannot be directly injected into the HPLC without affecting the elution of the compound being measured, the compound was extracted from the separated octanol phase with an acidic 150 mM NaCl solution adjusted to a pH of approximately 2.6 (with 100 mM glacial acetic acid). The acidic saline solution was allowed to gently mix with the octanol phase for 20 minutes on a shaker at room temperature. The samples containing the octanol and acidic saline phases were then centrifuged at 1,000×g for 5 minutes and the upper octanol phase was carefully removed with a Pasteur pipette. This back extraction step was repeated at least two and sometimes three times. All three or four back extracted solutions for a particular compound were then combined. Both the original aqueous and the back extracted octanol phases were then diluted with 50 mM ammonium acetate buffer, pH 4.5. The diluted samples were then transferred by pipette to autosampler tubes and subsequently […] of each diluted sample was injected into the HPLC. The area under the curve (AUC) of an absorbance peak was determined for samples from both (octanol and aqueous) of the original phases. Taking into account the dilutions of each sample phase during its preparation for HPLC determination, Log P (taking into consideration the percent ionization at pH 7.4) was then calculated.

α7 nAChR, sequence (Q05941 23-502): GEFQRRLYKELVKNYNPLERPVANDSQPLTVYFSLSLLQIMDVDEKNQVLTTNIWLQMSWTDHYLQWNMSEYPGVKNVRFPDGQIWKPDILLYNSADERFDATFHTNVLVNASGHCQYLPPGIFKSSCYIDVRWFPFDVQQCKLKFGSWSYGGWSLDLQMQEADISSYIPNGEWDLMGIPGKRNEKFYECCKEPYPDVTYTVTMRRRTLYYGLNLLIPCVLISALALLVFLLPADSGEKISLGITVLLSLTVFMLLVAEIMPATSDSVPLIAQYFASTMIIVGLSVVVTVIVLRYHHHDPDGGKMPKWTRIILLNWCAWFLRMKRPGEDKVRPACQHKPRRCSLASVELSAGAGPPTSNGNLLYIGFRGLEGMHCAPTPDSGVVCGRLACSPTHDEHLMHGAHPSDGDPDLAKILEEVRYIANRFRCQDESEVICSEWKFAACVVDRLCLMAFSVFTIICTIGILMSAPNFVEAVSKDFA
α4β2 nAChR, sequence (P09483 31-630): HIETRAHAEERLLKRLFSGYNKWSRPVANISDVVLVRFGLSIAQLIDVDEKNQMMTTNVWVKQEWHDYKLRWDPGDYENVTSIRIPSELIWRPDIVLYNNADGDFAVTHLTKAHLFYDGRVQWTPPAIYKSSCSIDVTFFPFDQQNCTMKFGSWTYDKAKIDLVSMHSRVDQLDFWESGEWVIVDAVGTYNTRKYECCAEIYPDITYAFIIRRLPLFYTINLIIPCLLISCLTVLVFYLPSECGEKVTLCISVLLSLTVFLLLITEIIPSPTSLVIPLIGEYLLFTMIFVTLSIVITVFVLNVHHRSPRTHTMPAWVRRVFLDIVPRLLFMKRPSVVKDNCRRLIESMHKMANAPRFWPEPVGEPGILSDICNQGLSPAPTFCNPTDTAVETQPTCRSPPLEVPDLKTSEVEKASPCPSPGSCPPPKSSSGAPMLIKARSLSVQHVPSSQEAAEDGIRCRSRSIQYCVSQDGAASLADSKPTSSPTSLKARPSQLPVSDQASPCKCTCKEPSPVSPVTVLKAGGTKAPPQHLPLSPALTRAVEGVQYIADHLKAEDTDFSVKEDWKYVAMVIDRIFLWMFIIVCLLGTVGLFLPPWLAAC
α4β2 nAChR, sequence (P12390 25-500): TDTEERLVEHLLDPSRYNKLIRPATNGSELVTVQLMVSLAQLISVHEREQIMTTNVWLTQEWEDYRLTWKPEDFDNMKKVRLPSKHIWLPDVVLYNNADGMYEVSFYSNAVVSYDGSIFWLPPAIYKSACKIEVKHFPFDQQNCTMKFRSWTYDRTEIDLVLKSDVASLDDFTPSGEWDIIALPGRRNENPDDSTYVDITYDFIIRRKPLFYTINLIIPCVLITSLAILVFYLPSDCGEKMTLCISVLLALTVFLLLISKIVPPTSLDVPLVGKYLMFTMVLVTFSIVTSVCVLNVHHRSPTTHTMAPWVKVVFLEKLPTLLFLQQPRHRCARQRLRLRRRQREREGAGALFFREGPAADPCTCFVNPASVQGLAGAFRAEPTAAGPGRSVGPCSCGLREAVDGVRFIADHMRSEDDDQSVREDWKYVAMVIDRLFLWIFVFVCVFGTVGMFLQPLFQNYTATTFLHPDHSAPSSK

As to `C(=C1/CCCN=C1c1cccnc1)/c1ccc2c(c1)OCCO2` [3-[3,4-(Ethylenedioxy)benzylidene]-anabaseine], at α7 nAChR (alpha7 selectivity, not normalized with respect to DMXBA selectivity), the “Ki α4β2/α7 Ratio” value is 2.60. Moreover, the inhibition constant Ki at α7 nAChR (rat brain membranes, [125I]alpha-bungarotoxin, n = 2) is 0.2 ± 0.01 µM; on α4β2 nAChR, 0.52 ± 0.01 µM. The pKa in data set [1] (imine nitrogen, room temperature, 50 mM potassium phosphate buffer, 150 mM NaCl) worked out at 7.56 ± 0.03. The “% ionized” value in data set [1] (percent ionization at pH 7.4) is on record as 59.11%. In data set [2], the log partition coefficient (logP) is 3.1.
In turn, `COc1ccc2cc(/C=C3\CCCN=C3c3cccnc3)ccc2c1` (as salt: hydrochloride) [3-[(6-Methoxy-naphth-2-yl)-methylene]-anabaseine dihydrochloride] gave a melting point of 223 to 226 °C.

Broadly, the Ki is a dissociation constant, usually derived from enzyme kinetics or from competition with a known ligand. High values mean weaker binding, low ones tighter binding. For orientation: pKa means the pH at which an ionisable group is half protonated. Low values mean a stronger acid or weaker base, high ones a weaker acid or stronger base. By logP is commonly meant the decadic logarithm of the partition coefficient of the neutral form, usually between octanol and water. In general, melting point refers to the temperature, or range, at which the solid turns liquid.
